Test results from patent US12479800B2, “Phenylpropionamide compound and use thereof” (MEDSHINE DISCOVERY INC., priority 2020, dated 2025).
Where a SMILES comes first, the peptide text is derived from it. [ ]: non-standard residue; d: D form. The star is where a group is joined. Gly(N-(2R-Ph-propyl)) = C[C@@H](CNCC(=O)O)c1ccccc1; Piperidin1yl(4-NH2,4-COOH) = NC1(C(=O)O)CCN(*)CC1; dGly(cPent) = N[C@@H](C(=O)O)C1CCCC1; dAla(cPr) = N[C@H](CC1CC1)C(=O)O; X1 = CC(=O)N1CC2(CCN(*)CC2)C1

What was measured:
Kappa receptor = Kappa receptor (Homo sapiens (Human), UniProt P41145); assay: cAMP test of Kappa receptor; assay type: cell-based; conditions: KOR cAMP cells; read-out: EC50 value of the compound to Kappa receptor
Procedure: Experimental Embodiment 1: cAMP Test of Kappa Receptor
Experimental buffer: 1*HBSS (+/+) (SIGMA #H1387)+20 mM HEPES (LONZA #17-737E)
Stimulation buffer (STB): 200 μM IBMX (SIGMA #I7018) and 3 μM NKH477 (SIGMA #N3290) experimental buffer
Experimental Methods and Steps
The compound powder was dissolved with DMSO (Amresco #0231), and the concentration of the compound solution was 10 mM. 1 μL of the test compound was taken, and 49 μL of DMSO was added thereto, and the mixture was diluted to 200 μM of solution.
A LDV 384-well plate was taken, and the compound solution diluted in the previous step was respectively added to wells A1 to H1; a pre-prepared 200 μM of U-50488 (Tocris #0495/25) was taken and added to well P1; 10.8 μL of DMSO was added to each well of A2 to A11, […], and P2 to P11, respectively, and the mixture was centrifuged at 1000 rpm for 30 seconds.
Continuous gradient dilutions of compounds were performed with bravo, and the first column of LDV plate prepared in the previous step was taken as the initial concentration column, and 5 μL was sucked into the next column each time and blown and mixed evenly.
After the dilution was completed, 10 μL 200 μM of U-50488 was added to well A24 as HPE (100% inhibition rate activity), and 10 μL of DMSO was added to well P24 as ZPE (0% inhibition rate activity), and the mixture was centrifuged at 1000 rpm for 30 seconds.
According to the experimental layout, the compound solution diluted in the previous step was transferred to the experimental plate Corning 3824 with Echo 550, 50 nL per well.
A set of frozen KOR cAMP cells was taken from the −80° C. refrigerator and thawed in a 37° C.-water bath.
After thawing, the cells in the tube were aspirated into a 15 mL centrifuge tube, and 4 mL of experimental buffer was added thereto. […]
Cell density was counted and adjusted on a cell counter to 1.5*10^6 cells/mL. […]
Experimental plates were read with Envision.

[1] = Plasma protein binding rate (PPB) test, human plasma; assay type: in vitro ADME; conditions: 2 μM, equilibrium dialysis 4 hours 37° C.
Procedure: (§1) To test the protein binding rate of the test compound in human and SD rat plasma.
(§2) The frozen plasma was thawed in flowing cold tap water, and then the plasma was centrifuged at 3220×g for 5 minutes to remove the suspension and precipitate. The pH of plasma was determined, and only the plasma with a pH between 7.0 to 8.0 could be used for experiments.
(§3) The experiment was used a 96-well balanced dialysis plate (HTDialysis device) to determine the plasma protein binding rate of the test compound and control compound. Before the experiment was started, the dialysis membrane was pretreated according to the description, and then the dialysis device was assembled as required. The blank plasma of human and SD rats (plasma purchased from BioreclamationIVT) was taken, and the test compound working solution or the warfarin working solution was added to make the final concentration of the test compound and warfarin in the plasma samples both 2 μM. The sample was mixed well. […] The unbound rate (Unbound) %, bound rate (Bound) % and recovery rate (Recovery) % of the compound were calculated by the following formula: % Unbound=100*FC/TC, % Bound=100−% Unbound, % Recovery=100*(FC+TC)/T0. […]

[2] = Plasma protein binding rate (PPB) test, SD rat plasma; assay type: in vitro ADME; conditions: 2 μM, equilibrium dialysis 4 hours 37° C.
Procedure: as §1, §2, §3

Human hepatocyte = assay: Metabolic stability (HMS) study in human hepatocytes; assay type: in vitro ADME; conditions: 0.5×10^6 cells/mL
Procedure: (§4) To test the metabolic stability of the test compound in human and rat hepatocytes.
(§5) 2.1 Test Compound (10 mM), Reference Substance: 7-Ethoxycoumarin, 30 mM, 7-Hydroxycoumarin, Reference Substance, 30 mM
(§6) Culture medium for thawing: Williams' E medium containing 5% fetal bovine serum and 30% Percoll solution and other auxiliary materials.
(§7) Culture medium for incubation: Williams' E medium (without phenol red), wherein containing 2 mM L-glutamine and 25 mM of hydroxyethyl piperazine ethanesulfonic acid.
(§8) Termination solution: acetonitrile containing 200 ng/mL of tolbutamide and labetalol as internal standard.
(§9) Dilution solution: ultrapure water. […]
(§10) The elimination rate constant k of the test compound and the control compound in hepatocyte was calculated by plotting the logarithm of the time to the residual rate, and the half-life (T1/2) and the intrinsic clearance rate in vitro (CLint) were obtained by the elimination rate constant k with the following formula: T1/2=0.693/k CLint(hep)=k/number of cells per mL(million cells/mL) CLint(liver)=CLint(hep)×ratio of liver weight to body weight×number of hepatocytes per gram of liver […]

Rat hepatocyte = assay: Metabolic stability (HMS) study in rat hepatocytes; assay type: in vitro ADME; conditions: 0.5×10^6 cells/mL
Procedure: as §4, §5, §6, §7, §8, §9, §10

[3] = In vivo pharmacokinetic study in SD rats; parameters: species or system Sprague Dawley rats; conditions: intravenous 3 mg/kg
Procedure: To test the in vivo pharmacokinetics of test compound in SD rats
Sprague Dawley rats (male, 6 to 10 weeks old, purchased from Beijing Vital River Laboratory Animal Co., LTD)
Compound 1 was mixed with normal saline to prepare a clear solution of 1 mg/mL for injection group administration, filtered by microporous membranes and ready for use. The test compound was administered intravenously at 3 mg/kg, and the solvent for intravenous administration was normal saline. Plasma samples were collected at 0, 0.083, 0.25, 0.5, 1.0, 2.0, 4.0, 8.0 and 24 hours after administration. The plasma concentration was determined by LC-MS/MS method, and the relevant pharmacokinetic parameters were calculated by non-compartmental model linear logarithmic trapezoidal method using WinNonlin™ Version 6.3 (Pharsight, Mountain View, CA) pharmacokinetic software.

Row | Compound | EC50 (Kappa receptor) | Unbound rate in plasma [1] | Unbound rate in plasma [2] | Intrinsic clearance rate in liver (Human hepatocyte) | Intrinsic clearance rate in liver (Rat hepatocyte) | AUC0-last [3] | Cl (total clearance rate) [3] | T1/2 (elimination half-life) [3] | Vdss (steady-state apparent volume of distribution) [3] | C0 ([3]; read-out: C0 (initial concentration))
1 | C[C@@H](CNCC(=O)N[C@H](Cc1ccccc1)C(=O)N[C@H](CC1CC1)C(=O)N[C@H](CCCCN)C(=O)N1CCC(N)(C(=O)O)CC1)c1ccccc1 [Compound 1] (H-[Gly(N-(2R-Ph-propyl))][dF][dAla(cPr)][dK]-{Piperidin1yl(4-NH2,4-COOH)}) | 0.085 nM | 55.2% | 44.7% | <17.8 mL/min/kg | <29.9 mL/min/kg | 7.2 µM·h | 9.90 mL/min/kg | 1.33 h | 0.29 L/kg | 17.6 µM
2 | C[C@@H](CNCC(=O)N[C@H](Cc1ccccc1)C(=O)N[C@@H](C(=O)N[C@H](CCCCN)C(=O)N1CCC(N)(C(=O)O)CC1)C1CCCC1)c1ccccc1 [Compound 2] (H-[Gly(N-(2R-Ph-propyl))][dF][dGly(cPent)][dK]-{Piperidin1yl(4-NH2,4-COOH)}) | 0.311 nM |  |  |  |  |  |  |  |  | 
3 | CC(=O)N1CC2(CCN(C(=O)[C@@H](CCCCN)NC(=O)[C@@H](CC3CC3)NC(=O)[C@@H](Cc3ccccc3)NC(=O)CNC[C@H](C)c3ccccc3)CC2)C1 [Compound 4] (H-[Gly(N-(2R-Ph-propyl))][dF][dAla(cPr)][dK]-X1) | 0.034 nM |  |  |  |  |  |  |  |  | 
